Results on 9 molecules are retold here after EP4800018A1, “PAN-KRAS INHIBITOR AND USE THEREOF IN MEDICINES” (Betta Pharmaceuticals Co., Ltd., priority 2023, dated 2025).

Read-outs that look alike come from different tables or passages of the source.

Type in all cases: cell-based
For assay [1], the system named is KRAS-G12D mutant tumor cells AGS. Description: Cell Proliferation Inhibition Assay (AGS), Cell-titer GLO, 96 h. To be noted: AGS cells, 96 h incubation, Cell-titer GLO, read-out: AGS(G12D). The essentials:
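AGS cells (KRAS-G12D) grown in low-attachment plates were exposed to compound for 96 h at 37°C. Viability was read by CellTiter-Glo luminescence and converted to % inhibition against max and blank wells. IC50 came from curve fitting.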

The subject of assay [2] is KRAS-G12V mutant tumor cells SW620. Description: Cell Proliferation Inhibition Assay (SW620), Cell-titer GLO, 96 h. To be noted: SW620 cells, 96 h incubation, Cell-titer GLO, read-out: SW620(G12V). The essentials: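 SW620 cells (1×10^3/well, low-attachment) were exposed to compound from 10000 to 0.03 nM (0.5% DMSO) for 96 h at 37°C. Viability was read by Cell-titer GLO luminescence. Inhibition was calculated relative to DMSO and blank wells, and IC50 obtained by curve fitting.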

The next assay concerns the target T1, KRAS G12D-cRAF (Homo sapiens, UniProt P01116, G12D).
T1 construct: expressed in transfected cells
Put plainly: Cellular KRAS G12D-cRAF Binding Inhibition Assay (NanoBRET, AD293 stable cells). To be noted: 3 h incubation, read-out: NanoBRET KRAS G12D. In outline: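 AD293 cells stably expressing KRAS G12D-NanoLuc and cRAF RBD-HaloTag were seeded at 1×10^4 cells/well with NanoBRET 618 ligand overnight. BRET signal was converted to % inhibition of binding relative to max and blank wells, and IC50 came from curve fitting.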
A general note: Bioluminescence resonance energy transfer reports proximity on the nanometre scale.

The target in another assay is T2, KRAS G12V-cRAF (Homo sapiens, UniProt P01116, G12V).
T2 construct: expressed in transfected cells
T2 sequence (P01116 1-188 isoform P01116-2 G12V): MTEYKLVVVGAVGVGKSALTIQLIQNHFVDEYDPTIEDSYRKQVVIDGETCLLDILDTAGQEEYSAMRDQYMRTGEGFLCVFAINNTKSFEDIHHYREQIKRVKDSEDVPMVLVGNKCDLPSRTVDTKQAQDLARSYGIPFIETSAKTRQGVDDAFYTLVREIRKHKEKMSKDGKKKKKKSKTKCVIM
Description: Cellular KRAS G12V-cRAF Binding Inhibition Assay (NanoBRET, AD293 stable cells). To be noted: 3 h incubation, read-out: NanoBRET KRAS G12V. The essentials: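 Live AD293 stable cells, NanoLuc donor with HaloTag NanoBRET 618 ligand acceptor added overnight. Inhibition percent from luminescence relative to max signal and medium blank; IC50 from curve fitting.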

T1 sequence (P01116 1-188 isoform P01116-2 G12D): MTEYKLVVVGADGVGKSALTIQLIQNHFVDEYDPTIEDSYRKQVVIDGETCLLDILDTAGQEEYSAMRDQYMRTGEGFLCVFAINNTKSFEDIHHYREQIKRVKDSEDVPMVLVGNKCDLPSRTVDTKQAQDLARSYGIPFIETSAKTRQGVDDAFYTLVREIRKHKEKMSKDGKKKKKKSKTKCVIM

Consider `CC1OCCCn2c(c3c4cc(ccc42)-c2csc(n2)CC(NC(=O)C2CC2C(F)F)C(=O)N2CCCC(N2)C(=O)OCC(C)(C)C3)-c2cc(N3CCCC(N(C)C)C3)cnc21` [Example 117, (1S,2S)-2-(difluoromethyl)-N-((1^5S,6^3S,4S,Z)-1^2-(3-(dimethylamino)piperidin-1-yl)-1^5,10,10-trimethyl-5,7-dioxo-1^8,1^9,6^1,6^2,6^3,6^4,6^5,6^6-octahydro-1^5H,1^7H-8-oxa-1(13,15)-pyrido[3',2':7,8][1,5]oxazonino[5,6-a]indola-2(4,2)-thiazola-6(1,3)-pyridazinacycloundecaphane-4-yl)cyclopropane-1-carboxamide], for which the IC50 in assay [1] (Homo sapiens, AGS, 96 h) was found to be 0.86 nM; in assay [2] (Homo sapiens, SW-620, 96 h), 0.21 nM; at KRAS G12D-cRAF it was 1.8 nM; at KRAS G12V-cRAF, 8.1 nM.

For the molecule `CC1OCCCn2c(c3c4cc(ccc42)-c2csc(n2)CC(NC(=O)C2CC2C)C(=O)N2CCCC(N2)C(=O)OCC(C)(C)C3)-c2cc(N3CCOCC3)cnc21` [Example 118, (1S,2S)-2-methyl-N-((1^5S,6^3S,4S,Z)-1^5,10,10-trimethyl-1^2-morpholino-5,7-dioxo-1^8,1^9,6^1,6^2,6^3,6 ^4,6^5,6^6-octahydro-1^5H,1^7H-8-oxa-1(13,15)-pyrido[3',2':7,8][1,5]oxazonino[5,6-a]indola-2(4,2)-thiazola-6(1,3)-pyridazinacycloundecaphane-4-yl)cyclopropane-1-carboxamide], the IC50 stood at 3.77 nM in assay [1] (Homo sapiens, AGS, 96 h); 1.5 nM in assay [2] (Homo sapiens, SW-620, 96 h); 7.2 nM on KRAS G12D-cRAF; 30.6 nM at KRAS G12V-cRAF.

Turning to `CCN1CCN(c2cnc3c(c2)-c2c4c5cc(ccc5n2CCCOC3C)-c2csc(n2)CC(NC(=O)C23COC(C)(C2)C3)C(=O)N2CCCC(N2)C(=O)OCC(C)(C)C4)CC1` [Example 124, (1S,4r)-N-((1^5S,6^3S,4S,Z)-1^2-(4-ethylpiperazin-1-yl)-1^5,10,10-trimethyl-5,7-dioxo-1^8,1^9,6^1,6^2,6^3, 6^4,6^5,6^6-octahydro-1^5H,1^7H-8-oxa-1(13,15)-pyrido[3',2':7,8][1,5]oxazonino[5,6-a]indola-2(4,2)-thiazola-6(1,3)-pyridazinacycloundecaphane-4-yl)-1-methyl-2-oxabicyclo[2.1.1]hexane-4-carbox amide], the IC50 in assay [1] (Homo sapiens, AGS, 96 h) was found to be 4.67 nM; in assay [2] (Homo sapiens, SW-620, 96 h), 1.45 nM; at KRAS G12D-cRAF it was 8.38 nM; at KRAS G12V-cRAF, 18 nM.

As for `CC1OCCCn2c(c3c4cc(ccc42)-c2csc(n2)CC(NC(=O)C2CC2C(F)F)C(=O)N2CCCC(N2)C(=O)OCC(C)(C)C3)-c2cc(N3CCC4(CC3)COC4)cnc21` [Example 125, (1S,2S)-2-(difluoromethyl)-N-((1^5S,6^3S,4SZ)-1^5,10,10-trimethyl-5,7-dioxo-1^2-(2-oxa-7-azaspiro [3.5]nonan-7-yl)-1^8,1^9,6^1,6^2,6^3,6^4,6^5,6^6-octahydro-1^5H,1^7H-8-oxa-1(13,15)-pyrido[3',2':7,8][1,5]oxazonino[5,6-a]indola-2(4,2)-thiazola-6(1,3)-pyridazinacycloundecaphane-4-yl)cyclopropane-1-carboxamide], the IC50 in assay [1] (Homo sapiens, AGS, 96 h) is 2.8 nM; in assay [2] (Homo sapiens, SW-620, 96 h) it was 0.6 nM; on KRAS G12D-cRAF it was 4.55 nM; on KRAS G12V-cRAF, 14.7 nM.

In the case of `CC1CN(c2cnc3c(c2)-c2c4c5cc(ccc5n2CCCOC3C)-c2csc(n2)CC(NC(=O)C2CC2C(F)F)C(=O)N2CCCC(N2)C(=O)OCC(C)(C)C4)CC(C)O1` [Example 128, (1S,2S)-2-(difluoromethyl)-N-((1^5S,6^3S,4S,Z)-1^2-((2S,6R)-2,6-dimethylmorpholino)-1^5,0,10-trimethyl-5,7-dioxo-1^8,1^9,6^1,6^2,6^3,6^4,6^5,6^6-octahydro-1^5H,1^7H-8-oxa-1(13,15)-pyrido[3',2':7,8][1,5]oxazonino[5,6-a]indola-2(4,2)-thiazola-6(1,3)-pyridazinacycloundecaphane-4-yl)cyclopropane-1-carboxamide], the IC50 was 1.28 nM in assay [1] (Homo sapiens, AGS, 96 h); 0.29 nM in assay [2] (Homo sapiens, SW-620, 96 h); 2.5 nM on KRAS G12D-cRAF; 11.4 nM at KRAS G12V-cRAF.

Take `CC1CN(c2cnc3c(c2)-c2c4c5cc(ccc5n2CCCOC3C)-c2csc(n2)CC(NC(=O)C2CC2C(F)F)C(=O)N2CCCC(N2)C(=O)OCC(C)(C)C4)CCO1` [Example 130, (1S,2S)-2-(difluoromethyl)-N-((1^5S,6^3S,4S,Z)-1^5,10,10-trimethyl-1^2-((R)-2-methylmorpholino)-5,7-dioxo-1^8,1^9,6^1,6^2,6^3,6^4,6^5,6^6-octahydro-1^5H,^7H-8-oxa-1(13,15)-pyrido[3',2':7,8][1,5]oxazonino[5,6-a]indola-2(4,2)-thiazola-6(1,3)-pyridazinacycloundecaphane-4-yl)cyclopropane-1-carbox amide]: the IC50 in assay [1] (Homo sapiens, AGS, 96 h) came out at 1.8 nM; in assay [2] (Homo sapiens, SW-620, 96 h), 0.85 nM; on KRAS G12D-cRAF, 3.4 nM; at KRAS G12V-cRAF, 16.3 nM.

Turning to `CC1CN(c2cnc3c(c2)-c2c4c5cc(ccc5n2CCCOC3C)-c2csc(n2)CC(NC(=O)C2CC2C(F)F)C(=O)N2CCCC(N2)C(=O)OCC(C)(C)C4)CC(C)O1` [Example 131, (1S,2S)-2-(difluoromethyl)-N-((1^5S,6^3S,4S,Z)-1^2-((2S,6S)-2,6-dimethylmorpholino)-1^5,10,10-trimethyl-5,7-dioxo-1^8,1^9,6^1,6^2,6^3,6^4,6^5,6^6-octahydro-1^5H,1^7H-8-oxa-1(13,15)-pyrido[3',2':7,8][1,5]oxazonino[5,6-a]indola-2(4,2)-thiazola-6(1,3)-pyridazinacycloundecaphane-4-yl)cyclopropane-1-carboxamide], the IC50 in assay [1] is 1.31 nM; in assay [2], 0.51 nM; on KRAS G12D-cRAF it was 2.57 nM; on KRAS G12V-cRAF, 11 nM.

As to `CC1OCCCn2c(c3c4cc(ccc42)-c2csc(n2)CC(NC(=O)C2CC2C(F)F)C(=O)N2CCCC(N2)C(=O)OCC(C)(C)C3)-c2cc(N3CCS(=O)(=O)CC3)cnc21` [Example 133, (1S,2S)-2-(difluoromethyl)-N-((1^5S,6^3S,4S,Z)-1^2-(1,1-dioxidothiomorpholino)-1^5,10,10-trimethy 1-5,7-dioxo-1^8,1^9,6^1,6,^26^3,6^4,6^5,6^6-octahydro-1^5H,1^7H-8-oxa-1(13,15)-pyrido[3',2':7,8][1,5]oxazonino[5,6-alindola-2(4,2)-thiazola-6(1,3)-pyridazinacycloundecaphane-4-yl)cyclopropane-1-carboxamide], the IC50 in assay [1] (Homo sapiens, AGS, 96 h) was found to be 1.25 nM; in assay [2] (Homo sapiens, SW-620, 96 h), 0.79 nM; on KRAS G12D-cRAF, 9.2 nM; on KRAS G12V-cRAF, 40.9 nM.

As for `CC1OCCCn2c(c3c4cc(ccc42)-c2csc(n2)CC(NC(=O)C2CC2C(F)F)C(=O)N2CCCC(N2)C(=O)OCC(C)(C)C3)-c2cc(N3CC[S+]([O-])CC3)cnc21` [Example 134, (1S,2S)-2-(difluoromethyl)-N-(((1^5S,6^3S,4S,Z)-1^5,10,10-trimethyl-1^2-(1-oxidothiomorpholino)-5,7-dioxo-1^8,1^9,6^1,6^2,6^3,6^4,6^5,6^6-octahydro-1^5H,1^7H-8-oxa-1(13,15)-pyrido[3',2':7,8][1,5]oxazonino[5,6-alindola-2(4,2)-thiazola-6(1,3)-pyridazinacycloundecaphane-4-yl)cyclopropane-1-carboxamide], the IC50 was 1.7 nM in assay [1] (Homo sapiens, AGS, 96 h); 1.44 nM in assay [2] (Homo sapiens, SW-620, 96 h); 13.7 nM at KRAS G12D-cRAF; 59 nM on KRAS G12V-cRAF.
